# Assay results as given in US6906205B2, “Spiro and dispiro 1,2,4-trioxolane antimalarials” (Medicines for Malaria Venture MMV, priority 2002, dated 2005).
# Test system: P. falciparum K1 strain (Thailand resistant to chloroquine)
# Experiment: semiautomated microdilution assay, [3H]-hypoxanthine incorporation, K1 strain
# Assay type: cell-based, Plasmodium falciparum
# Details: K1 strain, 72 h incubation
# How it was run: (§1)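 IC50 values come from logit regression of semiautomated microdilution data obtained on intraerythrocytic parasites drawn from asynchronous cultures.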
row,SMILES,IC50 (ng/ml) K1 [ng/mL]
1,COC(=O)c1ncn(C[C@H]2CC[C@]3(CC2)OOC2(O3)C3CC4CC(C3)CC2C4)n1 (some centres unmarked) [OZ234],3.0
2,NC(=O)[C@@H]1CCCN1C(=O)C[C@H]1CC[C@]2(CC1)OO[C@]1(O2)C2CC3CC(C2)CC1C3 [OZ346],3.8
3,c1c[nH]c([C@H]2CC[C@]3(CC2)OOC2(O3)C3CC4CC(C3)CC2C4)n1 (some centres unmarked) [OZ251],0.60
4,CC(C)(C)COC(=O)C1CCC2(CC1)OOC1(O2)C2CC3CC(C2)CC1C3 (centres unmarked) [OZ64],1.5
5,O=C(NC[C@H]1CC[C@]2(CC1)OOC1(O2)C2CC3CC(C2)CC1C3)c1ccncc1 (some centres unmarked) [OZ255],2.2
6,O=C1CNC(=O)N1C[C@H]1CC[C@]2(CC1)OOC1(O2)C2CC3CC(C2)CC1C3 (some centres unmarked) [OZ206],1.0

# Test system: P. falciparum NF54 strain (sensitive to standard antimalarials)
# Experiment: semiautomated microdilution assay, [3H]-hypoxanthine incorporation, NF54 strain
# Assay type: cell-based, Plasmodium falciparum
# Details: NF54 strain, 72 h incubation
# How it was run: as §1
row,SMILES,IC50 (ng/ml) NF54 [ng/mL]
1,COC(=O)c1ncn(C[C@H]2CC[C@]3(CC2)OOC2(O3)C3CC4CC(C3)CC2C4)n1 (some centres unmarked) [OZ234],3.6
2,NC(=O)[C@@H]1CCCN1C(=O)C[C@H]1CC[C@]2(CC1)OO[C@]1(O2)C2CC3CC(C2)CC1C3 [OZ346],4.7
3,c1c[nH]c([C@H]2CC[C@]3(CC2)OOC2(O3)C3CC4CC(C3)CC2C4)n1 (some centres unmarked) [OZ251],0.35
4,CC(C)(C)COC(=O)C1CCC2(CC1)OOC1(O2)C2CC3CC(C2)CC1C3 (centres unmarked) [OZ64],1.3
5,O=C(NC[C@H]1CC[C@]2(CC1)OOC1(O2)C2CC3CC(C2)CC1C3)c1ccncc1 (some centres unmarked) [OZ255],1.1
6,O=C1CNC(=O)N1C[C@H]1CC[C@]2(CC1)OOC1(O2)C2CC3CC(C2)CC1C3 (some centres unmarked) [OZ206],2.7

# Test system: ANKA strain of P. berghei
# Experiment: single dose STI in vivo screen in infected mice
# Parameters: species or system Plasmodium berghei
# Details: percent reduction in parasitemia day 3 post-infection; single 3 mg/kg po in SSV
# How it was run: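 Groups of 3-5 Moro SPF or NMRI mice infected with the ANKA strain of P. berghei received a single dose of trioxolane on day one post-infection. The compound was given in 3% ethanol and 7% Tween 80 or in SSV (0.5% w/v CMC, 0.5% v/v benzyl alcohol, 0.4% v/v Tween 80, 0.9% w/v sodium chloride in water). Antimalarial activity was scored as percent reduction in parasitemia on day three and as survival time versus untreated controls. Survival to day 30 counted as cure.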
row,SMILES,Activity (%) 3 mg/kg SSV po [%]
1,NC(=O)[C@@H]1CCCN1C(=O)C[C@H]1CC[C@]2(CC1)OO[C@]1(O2)C2CC3CC(C2)CC1C3 [OZ346],51

# Same assay, conditions: percent reduction in parasitemia day 3 post-infection; single 10 mg/kg po in 3% ethanol and 7% Tween 80; mice
row,SMILES,Activity (%) po [%]
1,COC(=O)c1ncn(C[C@H]2CC[C@]3(CC2)OOC2(O3)C3CC4CC(C3)CC2C4)n1 (some centres unmarked) [OZ234],12
2,c1c[nH]c([C@H]2CC[C@]3(CC2)OOC2(O3)C3CC4CC(C3)CC2C4)n1 (some centres unmarked) [OZ251],29
3,CC(C)(C)COC(=O)C1CCC2(CC1)OOC1(O2)C2CC3CC(C2)CC1C3 (centres unmarked) [OZ64],95
4,O=C(NC[C@H]1CC[C@]2(CC1)OOC1(O2)C2CC3CC(C2)CC1C3)c1ccncc1 (some centres unmarked) [OZ255],99.61
5,O=C1CNC(=O)N1C[C@H]1CC[C@]2(CC1)OOC1(O2)C2CC3CC(C2)CC1C3 (some centres unmarked) [OZ206],93

# Same assay, conditions: percent reduction in parasitemia day 3 post-infection; single 10 mg/kg po in SSV
row,SMILES,Activity (%) 10 mg/kg SSV po [%]
1,NC(=O)[C@@H]1CCCN1C(=O)C[C@H]1CC[C@]2(CC1)OO[C@]1(O2)C2CC3CC(C2)CC1C3 [OZ346],85

# Same assay, conditions: percent reduction in parasitemia day 3 post-infection; single 10 mg/kg sc in 3% ethanol and 7% Tween 80; mice
row,SMILES,Activity (%) sc [%]
1,COC(=O)c1ncn(C[C@H]2CC[C@]3(CC2)OOC2(O3)C3CC4CC(C3)CC2C4)n1 (some centres unmarked) [OZ234],0
2,c1c[nH]c([C@H]2CC[C@]3(CC2)OOC2(O3)C3CC4CC(C3)CC2C4)n1 (some centres unmarked) [OZ251],99.87
3,CC(C)(C)COC(=O)C1CCC2(CC1)OOC1(O2)C2CC3CC(C2)CC1C3 (centres unmarked) [OZ64],98
4,O=C(NC[C@H]1CC[C@]2(CC1)OOC1(O2)C2CC3CC(C2)CC1C3)c1ccncc1 (some centres unmarked) [OZ255],99.92
5,O=C1CNC(=O)N1C[C@H]1CC[C@]2(CC1)OOC1(O2)C2CC3CC(C2)CC1C3 (some centres unmarked) [OZ206],91

# Same assay, conditions: percent reduction in parasitemia day 3 post-infection; single po dose in standard suspending vehicle (SSV); mice
row,SMILES,Activity (%) SSVpo [%]
1,COC(=O)c1ncn(C[C@H]2CC[C@]3(CC2)OOC2(O3)C3CC4CC(C3)CC2C4)n1 (some centres unmarked) [OZ234],0
2,c1c[nH]c([C@H]2CC[C@]3(CC2)OOC2(O3)C3CC4CC(C3)CC2C4)n1 (some centres unmarked) [OZ251],6
3,O=C(NC[C@H]1CC[C@]2(CC1)OOC1(O2)C2CC3CC(C2)CC1C3)c1ccncc1 (some centres unmarked) [OZ255],99.54
4,O=C1CNC(=O)N1C[C@H]1CC[C@]2(CC1)OOC1(O2)C2CC3CC(C2)CC1C3 (some centres unmarked) [OZ206],92

# Same assay, conditions: single 3 mg/kg po in SSV
row,SMILES,Survival (days) 3 mg/kg SSV po [days]
1,NC(=O)[C@@H]1CCCN1C(=O)C[C@H]1CC[C@]2(CC1)OO[C@]1(O2)C2CC3CC(C2)CC1C3 [OZ346],7.6

# Same assay, conditions: single 10 mg/kg po in 3% ethanol and 7% Tween 80; untreated control 5.6 ± 0.3
row,SMILES,Survival (days) po [days]
1,COC(=O)c1ncn(C[C@H]2CC[C@]3(CC2)OOC2(O3)C3CC4CC(C3)CC2C4)n1 (some centres unmarked) [OZ234],6.0
2,c1c[nH]c([C@H]2CC[C@]3(CC2)OOC2(O3)C3CC4CC(C3)CC2C4)n1 (some centres unmarked) [OZ251],6.7
3,CC(C)(C)COC(=O)C1CCC2(CC1)OOC1(O2)C2CC3CC(C2)CC1C3 (centres unmarked) [OZ64],7.3
4,O=C(NC[C@H]1CC[C@]2(CC1)OOC1(O2)C2CC3CC(C2)CC1C3)c1ccncc1 (some centres unmarked) [OZ255],9.0
5,O=C1CNC(=O)N1C[C@H]1CC[C@]2(CC1)OOC1(O2)C2CC3CC(C2)CC1C3 (some centres unmarked) [OZ206],8.0

# Same assay, conditions: single 10 mg/kg po in SSV
row,SMILES,Survival (days) 10 mg/kg SSV po [days]
1,NC(=O)[C@@H]1CCCN1C(=O)C[C@H]1CC[C@]2(CC1)OO[C@]1(O2)C2CC3CC(C2)CC1C3 [OZ346],8.8

# Same assay, conditions: single 10 mg/kg sc in 3% ethanol and 7% Tween 80; untreated control 5.6 ± 0.3
row,SMILES,Survival (days) sc [days]
1,COC(=O)c1ncn(C[C@H]2CC[C@]3(CC2)OOC2(O3)C3CC4CC(C3)CC2C4)n1 (some centres unmarked) [OZ234],6.3
2,c1c[nH]c([C@H]2CC[C@]3(CC2)OOC2(O3)C3CC4CC(C3)CC2C4)n1 (some centres unmarked) [OZ251],9.0
3,CC(C)(C)COC(=O)C1CCC2(CC1)OOC1(O2)C2CC3CC(C2)CC1C3 (centres unmarked) [OZ64],8.0
4,O=C(NC[C@H]1CC[C@]2(CC1)OOC1(O2)C2CC3CC(C2)CC1C3)c1ccncc1 (some centres unmarked) [OZ255],10.0
5,O=C1CNC(=O)N1C[C@H]1CC[C@]2(CC1)OOC1(O2)C2CC3CC(C2)CC1C3 (some centres unmarked) [OZ206],9.7

# Same assay, conditions: single po dose in SSV; untreated control 5.6 ± 0.3
row,SMILES,Survival (days) SSVpo [days]
1,COC(=O)c1ncn(C[C@H]2CC[C@]3(CC2)OOC2(O3)C3CC4CC(C3)CC2C4)n1 (some centres unmarked) [OZ234],6.0
2,c1c[nH]c([C@H]2CC[C@]3(CC2)OOC2(O3)C3CC4CC(C3)CC2C4)n1 (some centres unmarked) [OZ251],6.0
3,O=C(NC[C@H]1CC[C@]2(CC1)OOC1(O2)C2CC3CC(C2)CC1C3)c1ccncc1 (some centres unmarked) [OZ255],8.7
4,O=C1CNC(=O)N1C[C@H]1CC[C@]2(CC1)OOC1(O2)C2CC3CC(C2)CC1C3 (some centres unmarked) [OZ206],8.7
